From the supplement of paper PMC10307832 come the findings set out here.

What all share (experiment): relative viability (nuclei count vs DMSO), 5 days (fraction); higher = more cells survive
Compound in the assay “Axitinib + AZD7762”: CNC(=O)c1ccccc1Sc1ccc2c(/C=C/c3ccccn3)n[nH]c2c1 [Axitinib] + NC(=O)Nc1cc(-c2cccc(F)c2)sc1C(=O)N[C@H]1CCCNC1 [AZD7762] (partner 0.2 µM)
A digest of the protocol: (§1)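 A single step with final 0.05% Triton X-100, 1% formaldehyde and 1 ug/ml Hoechst fixed the cells and stained nuclei 5 days after treatment. Lung cancer cell lines in 1536-well plates had been treated by pin tool the day after seeding with one drug alone or a fixed anchor-drug dose plus five library-drug doses (not always all listed) in √10 steps, and nuclei were counted on 4× images. Relative viability is the ratio of nuclei in treated wells to nuclei in vehicle wells, taken as the median of duplicate plates.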

Compound in the assay “Bemcentinib + Decitabine”: Nc1nc(Nc2ccc3c(c2)CC[C@@H](N2CCCC2)CC3)nn1-c1cc2c(nn1)-c1ccccc1CCC2 [Bemcentinib] + Nc1ncn([C@H]2C[C@H](O)[C@@H](CO)O2)c(=O)n1 [Decitabine] (partner 2 µM)
A digest of the protocol: as §1

Compound in the assay “Axitinib + Dasatinib”: CNC(=O)c1ccccc1Sc1ccc2c(/C=C/c3ccccn3)n[nH]c2c1 [Axitinib] + Cc1nc(Nc2ncc(C(=O)Nc3c(C)cccc3Cl)s2)cc(N2CCN(CCO)CC2)n1 [Dasatinib] (partner 0.075 µM)
A digest of the protocol: as §1

Compound in the assay “Axitinib + Phenformin”: CNC(=O)c1ccccc1Sc1ccc2c(/C=C/c3ccccn3)n[nH]c2c1 [Axitinib] + N=C(N)NC(=N)NCCc1ccccc1 [Phenformin] (partner 250 µM)
An outline of the steps:
as §1

Regarding NCI-H1666, the relative viability with Axitinib + AZD7762 (first compound 0.005 µM) came out at 0.836; with Axitinib + AZD7762 (first compound 0.01581 µM) it was 0.816; with Axitinib + AZD7762 (first compound 0.05 µM), 0.879; with Axitinib + AZD7762 (first compound 0.1581 µM) it was 0.865; in the assay with Axitinib + AZD7762 (first compound 0.5 µM), 0.84; with Bemcentinib + Decitabine (first compound 0.04 µM) it was 0.618. Besides, the relative viability with Bemcentinib + Decitabine (first compound 0.1265 µM) worked out at 0.872; with Bemcentinib + Decitabine (first compound 0.4 µM), 0.722; with Bemcentinib + Decitabine (first compound 1.265 µM) it was 0.592; with Bemcentinib + Decitabine (first compound 4 µM), 0.632; with Axitinib + Dasatinib (first compound 0.005 µM), 0.836; with Axitinib + Dasatinib (first compound 0.01581 µM), 0.838. Besides, the relative viability in the assay with Axitinib + Dasatinib (first compound 0.05 µM) worked out at 0.825; in the assay with Axitinib + Dasatinib (first compound 0.1581 µM), 0.88; in the assay with Axitinib + Dasatinib (first compound 0.5 µM), 0.829; with Axitinib + Phenformin (first compound 0.005 µM), 0.588; with Axitinib + Phenformin (first compound 0.01581 µM) it was 0.559; with Axitinib + Phenformin (first compound 0.05 µM), 0.552. In addition, the relative viability with Axitinib + Phenformin (first compound 0.1581 µM) is 0.586; with Axitinib + Phenformin (first compound 0.5 µM), 0.502.

As to NCI-H1734, the relative viability was 0.64 with Axitinib + AZD7762 (first compound 0.005 µM); 0.573 with Axitinib + AZD7762 (first compound 0.01581 µM); 0.56 with Axitinib + AZD7762 (first compound 0.05 µM); 0.579 in the assay with Axitinib + AZD7762 (first compound 0.1581 µM); 0.668 with Axitinib + AZD7762 (first compound 0.5 µM); 0.401 in the assay with Bemcentinib + Decitabine (first compound 0.04 µM). The relative viability was determined as 0.533 with Bemcentinib + Decitabine (first compound 0.1265 µM); 0.595 with Bemcentinib + Decitabine (first compound 0.4 µM); 0.472 with Bemcentinib + Decitabine (first compound 1.265 µM); 0.447 with Bemcentinib + Decitabine (first compound 4 µM); 0.515 in the assay with Axitinib + Dasatinib (first compound 0.005 µM); 0.491 in the assay with Axitinib + Dasatinib (first compound 0.01581 µM). Moreover, the relative viability is 0.507 with Axitinib + Dasatinib (first compound 0.05 µM); 0.499 with Axitinib + Dasatinib (first compound 0.1581 µM); 0.446 in the assay with Axitinib + Dasatinib (first compound 0.5 µM); 0.423 with Axitinib + Phenformin (first compound 0.005 µM); 0.401 with Axitinib + Phenformin (first compound 0.01581 µM); 0.371 with Axitinib + Phenformin (first compound 0.05 µM). Moreover, the relative viability with Axitinib + Phenformin (first compound 0.1581 µM) came out at 0.404; with Axitinib + Phenformin (first compound 0.5 µM) it was 0.366.

On to NCI-H1755, for which the relative viability in the assay with Axitinib + AZD7762 (first compound 0.005 µM) was determined as 0.509; with Axitinib + AZD7762 (first compound 0.01581 µM), 0.435; with Axitinib + AZD7762 (first compound 0.05 µM), 0.454; in the assay with Axitinib + AZD7762 (first compound 0.1581 µM), 0.524; in the assay with Axitinib + AZD7762 (first compound 0.5 µM), 0.47; in the assay with Bemcentinib + Decitabine (first compound 0.04 µM), 0.724. Further, the relative viability was 0.671 with Bemcentinib + Decitabine (first compound 0.1265 µM); 0.726 with Bemcentinib + Decitabine (first compound 0.4 µM); 0.674 in the assay with Bemcentinib + Decitabine (first compound 1.265 µM); 0.718 in the assay with Bemcentinib + Decitabine (first compound 4 µM); 0.444 with Axitinib + Dasatinib (first compound 0.005 µM); 0.436 with Axitinib + Dasatinib (first compound 0.01581 µM). Moreover, the relative viability is 0.479 in the assay with Axitinib + Dasatinib (first compound 0.05 µM); 0.439 with Axitinib + Dasatinib (first compound 0.1581 µM); 0.388 with Axitinib + Dasatinib (first compound 0.5 µM); 0.62 with Axitinib + Phenformin (first compound 0.005 µM); 0.613 with Axitinib + Phenformin (first compound 0.01581 µM); 0.604 with Axitinib + Phenformin (first compound 0.05 µM). The relative viability came out at 0.634 with Axitinib + Phenformin (first compound 0.1581 µM) and 0.658 with Axitinib + Phenformin (first compound 0.5 µM).

Turning to NCI-H1792, the relative viability with Axitinib + AZD7762 (first compound 0.005 µM) is 0.72; in the assay with Axitinib + AZD7762 (first compound 0.01581 µM) it was 0.629; with Axitinib + AZD7762 (first compound 0.05 µM), 0.777; with Axitinib + AZD7762 (first compound 0.1581 µM) it was 0.755; in the assay with Axitinib + AZD7762 (first compound 0.5 µM) it was 1.03; in the assay with Bemcentinib + Decitabine (first compound 0.04 µM) it was 0.582. The relative viability with Bemcentinib + Decitabine (first compound 0.1265 µM) turned out to be 0.741; in the assay with Bemcentinib + Decitabine (first compound 0.4 µM), 0.594; in the assay with Bemcentinib + Decitabine (first compound 1.265 µM), 0.454; with Bemcentinib + Decitabine (first compound 4 µM), 0.63; in the assay with Axitinib + Dasatinib (first compound 0.005 µM), 0.763; in the assay with Axitinib + Dasatinib (first compound 0.01581 µM), 0.749. Besides, the relative viability with Axitinib + Dasatinib (first compound 0.05 µM) came to 0.618; with Axitinib + Dasatinib (first compound 0.1581 µM), 0.761; with Axitinib + Dasatinib (first compound 0.5 µM), 0.838; in the assay with Axitinib + Phenformin (first compound 0.005 µM), 0.323; with Axitinib + Phenformin (first compound 0.1581 µM), 0.304; in the assay with Axitinib + Phenformin (first compound 0.5 µM), 0.186.
